The record followed here is patent publication US20090099186A1, “INHIBITORS OF VIRAL REPLICATION” (priority 2005, published 2009).

This assay addresses T1, full-length NS3 (1-631) protein (HCV NS3 helicase) (Hepatitis C virus genotype 1a, UniProt P27958).
T1 construct: Recombinant, purified, full-length NS3 (1-631) protein
Nature of the assay: HCV Helicase TR-FRET Unwinding Assay. The assay is classed as biochemical. The method, then: HCV Helicase TR-FRET Unwinding Assay
Compound potency was assessed by determining the ability of the compound to inhibit DNA unwinding in an in vitro homogeneous time-resolved fluorescence quench assay. The helicase substrate (Perkin Elmer, TruPoint Helicase Substrate) consisted of partially double-stranded DNA, with one oligonucleotide strand labeled with a fluorescent europium chelate and the other strand labeled with the QSY™ 7 quencher. In the presence of helicase and ATP, this DNA is unwound and a large increase in fluorescence is observed. An excess of an unlabeled oligonucleotide (also from Perkin Elmer, TruPoint Helicase Capture Strand) that is complementary to the quencher strand was included in the assay to prevent reannealing of the europium and QSY-labeled strands.
The assay buffer consisted of 25 mM MOPS (pH 7.0), 500 μM MgCl2, and 0.005% (v/v) Triton X-100, with DMSO being present at a final concentration of 2% (v/v). Recombinant, purified, full-length NS3 (1-631) protein was included in these assays at a final concentration of 2.5 nM. Compound was incubated with NS3 protein for 5 minutes in a 384-well white Proxiplate™ (Perkin Elmer) prior to the addition of TruPoint Helicase Substrate (4 nM final concentration), TruPoint Helicase Capture Strand (15 nM final concentration), and ATP (100 μM final concentration). The final reaction volume was 20 μL. Immediately after the addition of the substrates and capture strand, the initial rates of the unwinding reactions were determined at room temperature via an Envision (Perkin Elmer) plate reader. The rates of reactions containing test compound were compared to those lacking test compound in order to evaluate compound potency. IC50 values were determined using the curve-fitting software XLfit (IDBS).

Setting [1] is: Table 4, inhibition of DNA unwinding, 2.5 nM NS3, 100 μM ATP.
The mark [2] stands for this setting: second TR-FRET IC50 column (c2) of Table 4, same head as the first, inhibition of DNA unwinding.

T1 sequence (P27958 1027-1657 T1100M/T1173A/K1247Q/A1303G/S1327L/G1556E/R1608W): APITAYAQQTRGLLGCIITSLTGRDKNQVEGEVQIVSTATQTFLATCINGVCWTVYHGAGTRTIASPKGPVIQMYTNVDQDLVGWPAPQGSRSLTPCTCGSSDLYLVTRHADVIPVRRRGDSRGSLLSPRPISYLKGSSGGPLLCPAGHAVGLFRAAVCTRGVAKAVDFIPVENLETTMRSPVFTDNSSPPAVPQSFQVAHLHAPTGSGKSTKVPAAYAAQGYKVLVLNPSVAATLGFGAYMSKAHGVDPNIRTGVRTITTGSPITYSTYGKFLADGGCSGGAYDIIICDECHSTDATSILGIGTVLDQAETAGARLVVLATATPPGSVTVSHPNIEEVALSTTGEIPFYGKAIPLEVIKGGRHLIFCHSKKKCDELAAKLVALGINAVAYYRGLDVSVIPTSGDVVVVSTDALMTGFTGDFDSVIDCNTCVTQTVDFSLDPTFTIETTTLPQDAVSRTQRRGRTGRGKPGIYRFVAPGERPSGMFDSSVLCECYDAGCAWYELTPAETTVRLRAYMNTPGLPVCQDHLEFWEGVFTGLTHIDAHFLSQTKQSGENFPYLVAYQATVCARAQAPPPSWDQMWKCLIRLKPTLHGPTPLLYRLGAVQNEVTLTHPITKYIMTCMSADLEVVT

For `COc1ccccc1Sc1ccc(/C=C/C(=O)NCCC2CCN(C)C2)c(Cl)c1` (stereo not drawn) [Example 25, (E)-3-(2-chloro-4-(2-methoxyphenylthio)phenyl)-N-(2-(1-methylpyrrolidin-3-yl)ethyl)acrylamide], the IC50 (in general, the concentration that gives 50% inhibition) lay within 10 to 50 µM under setting [1] and 10 to 50 µM under setting [2].

Turning to `O=C(/C=C/c1ccc(Sc2ccc(F)cc2)cc1Cl)N1CCOCC1` [Example 3, (E)-3-(2-chloro-4-(4-fluorophenylthio)phenyl)-1-morpholinoprop-2-en-1-one], the IC50 reads like this: under setting [1], 10 to 50 µM; under setting [2], 10 to 50 µM.

As for `COC(=O)C1CCN(C(=O)/C=C/c2ccc(N(C)C)cc2Cl)CC1` [Example 14, (E)-methyl 1-(3-(2-chloro-4-(dimethylamino)phenyl)acryloyl)piperidine-4-carboxylate], the IC50 under setting [1] was in the range of 10 to 50 µM and the IC50 under setting [2] lay within 10 to 50 µM.

On to `COC(=O)c1cccc(NC(=O)/C=C/c2ccc(Sc3ccc(F)cc3)cc2Cl)c1` [Example 7, (E)-methyl 3-(3-(2-chloro-4-(4-fluorophenylthio)phenyl)acrylamido)benzoate], for which the IC50 by setting is: under setting [1], under 10 µM; under setting [2], under 10 µM.

In the case of `COC(=O)C1CCN(C(=O)/C=C/c2ccc(Sc3ccc(F)cc3)cc2Cl)CC1` [Example 5, (E)-methyl 1-(3-(2-chloro-4-(4-fluorophenylthio)phenyl)acryloyl)piperidine-4-carboxylate], the IC50 under setting [1] was 10 to 50 µM and the IC50 under setting [2] is 10 to 50 µM.

Turning to `CCN(CC)C(=O)/C=C/c1ccc(Sc2ccc(F)cc2)cc1Cl` [Example 4, (E)-3-(2-chloro-4-(4-fluorophenylthio)phenyl)-N,N-diethylacrylamide], the IC50 by setting is: under setting [1], 10 to 50 µM; under setting [2], 10 to 50 µM.

In the case of `COc1ccccc1Sc1ccc(/C=C/C(=O)N2CCN(C(=O)c3ccoc3)CC2)c(Cl)c1` [Example 27, (E)-3-(2-chloro-4-(2-methoxyphenylthio)phenyl)-1-(4-(furan-3-carbonyl)piperazin-1-yl)prop-2-en-1-one], the IC50 runs as follows: under setting [1], 10 to 50 µM; under setting [2], 10 to 50 µM.

For the compound `CCN(CC)C(=O)/C=C/c1ccc(Sc2ccccc2OC)cc1Cl` [Example 28, (E)-3-(2-chloro-4-(2-methoxyphenylthio)phenyl)-N,N-diethylacrylamide], the IC50 is, setting by setting: under setting [1], 10 to 50 µM; under setting [2], 10 to 50 µM.

Regarding `Cc1cc(/C=C/C(=O)NCCC(=O)O)c(Cl)cc1Sc1ccc(F)cc1` [Example 20, (E)-3-(3-(2-chloro-4-(4-fluorophenylthio)-5-methylphenyl)acrylamido)propanoic acid], the IC50 is, setting by setting: under setting [1], 10 to 50 µM; under setting [2], 10 to 50 µM.

For `CCOC(=O)CCNC(=O)/C=C/c1cc(C)c(Sc2ccc(F)cc2)cc1Cl` [Example 19, (E)-ethyl 3-(3-(2-chloro-4-(4-fluorophenylthio)-5-methylphenyl)acrylamido)propanoate], the IC50 is, setting by setting: under setting [1], 10 to 50 µM; under setting [2], 10 to 50 µM.

In the case of `COc1ccccc1Sc1ccc(/C=C/C(=O)NCCCN(C)C)c(Cl)c1` [Example 24B, (E)-3-(2-chloro-4-(2-methoxyphenylthio)phenyl)-N-(3-(dimethylamino)propyl)acrylamide], the IC50 reads like this: under setting [1], 10 to 50 µM; under setting [2], 10 to 50 µM.

With `CN(C)c1ccc(/C=C/C(=O)NCCCn2ccnc2)c(Cl)c1` [Example 11, (E)-N-(3-(1H-imidazol-1-yl)propyl)-3-(2-chloro-4-(dimethylamino)phenyl)acrylamide], the IC50 is, setting by setting: under setting [1], 10 to 50 µM; under setting [2], 10 to 50 µM.

Take `CN(C)c1ccc(/C=C/C(=O)N2CCC(C(=O)O)CC2)c(Cl)c1` [Example 15]: the IC50 runs as follows: under setting [1], 10 to 50 µM; under setting [2], 10 to 50 µM.

The compound `O=C(/C=C/c1ccc(Sc2ccc(F)cc2)cc1Cl)Nc1cccc(C(=O)O)c1` [Example 8, (E)-3-(3-(2-chloro-4-(4-fluorophenylthio)phenyl)acrylamido)benzoic acid] yielded an IC50 under setting [1] of under 10 µM and an IC50 under setting [2] of under 10 µM.

As for `COc1ccccc1Sc1ccc(/C=C/C(=O)N2CCC(C(=O)O)CC2)c(Cl)c1Cl` [Example 32D, (E)-1-(3-(2,3-dichloro-4-(2-methoxyphenylthio)phenyl)acryloyl)piperidine-4-carboxylic acid], the IC50 fell in the range of 10 to 50 µM under setting [1] and 10 to 50 µM under setting [2].

`COc1ccccc1Sc1ccc(/C=C/C(=O)N2CCC(N3CCCC3)CC2)c(Cl)c1` [Example 30, (E)-3-(2-chloro-4-(2-methoxyphenylthio)phenyl)-1-(4-(pyrrolidin-1-yl)piperidin-1-yl)prop-2-en-1-one]: the half-maximal inhibitory concentration (IC50) was 10 to 50 µM under setting [1] and 10 to 50 µM under setting [2].

On to `O=C(O)C1CCN(C(=O)/C=C/c2ccc(Sc3ccc(F)cc3)cc2Cl)CC1` [Example 6], for which the IC50 lay within 10 to 50 µM under setting [1] and 10 to 50 µM under setting [2].

For the compound `COc1ccccc1Sc1ccc(/C=C/C(=O)NCCC(=O)O)c(Cl)c1` [Example 29, (E)-3-(3-(2-chloro-4-(2-methoxyphenylthio)phenyl)acrylamido)propanoic acid], the IC50 by setting is: under setting [1], 10 to 50 µM; under setting [2], 10 to 50 µM.

Consider `Cc1cc(/C=C/C(=O)N2CCC(C(=O)O)CC2)c(Cl)cc1Sc1ccc(F)cc1` [Example 22, (E)-1-(3-(2-chloro-4-(4-fluorophenylthio)-5-methylphenyl)acryloyl)piperidine-4-carboxylic acid], for which the IC50 is 10 to 50 µM under setting [1] and under 10 µM under setting [2].

The compound `O=C(/C=C/c1ccccc1Cl)NCCO` [Example 33] displayed an IC50 under setting [1] of 10 to 50 µM and an IC50 under setting [2] of 10 to 50 µM.

`Cc1cc(/C=C/C(=O)Nc2cccc(C(=O)O)c2)c(Cl)cc1Sc1ccc(F)cc1` [Example 21, (E)-3-(3-(2-chloro-4-(4-fluorophenylthio)-5-methylphenyl)acrylamido)benzoic acid]: the IC50 runs as follows: under setting [1], under 10 µM; under setting [2], under 10 µM.

Consider `CN(C)c1ccc(/C=C/C(=O)N2CCOCC2)c(Cl)c1` [Example 13, (E)-3-(2-chloro-4-(dimethylamino)phenyl)-1-morpholinoprop-2-en-1-one], for which the IC50 is 10 to 50 µM under setting [1] and 10 to 50 µM under setting [2].

On to `CN(C)c1ccc(/C=C/C(=O)NCCN2CCOCC2)c(Cl)c1` [Example 10], for which the IC50 under setting [1] lay in the range of 10 to 50 µM and the IC50 under setting [2] fell in the range of 10 to 50 µM.

As to `Cc1cc(/C=C/C(=O)N2CCCCC2)c(Cl)cc1Sc1ccc(F)cc1` [Example 16G, (E)-3-(2-chloro-4-(4-fluorophenylthio)-5-methylphenyl)-1-(piperidin-1-yl)prop-2-en-1-one], the IC50 runs as follows: under setting [1], 10 to 50 µM; under setting [2], 10 to 50 µM.

As to `COc1ccccc1Sc1ccc(/C=C/C(=O)N2CCC(C(=O)O)CC2)c(Cl)c1` [Example 26, (E)-1-(3-(2-chloro-4-(2-methoxyphenylthio)phenyl)acryloyl)piperidine-4-carboxylic acid], the IC50 is 10 to 50 µM under setting [1] and 10 to 50 µM under setting [2].

For `CC(=O)N1CCN(C(=O)/C=C/c2ccc(N(C)C)cc2Cl)CC1` [Example 9B, (E)-1-(4-acetylpiperazin-1-yl)-3-(2-chloro-4-(dimethylamino)phenyl)prop-2-en-1-one], the 50% inhibitory concentration (IC50) is, setting by setting: under setting [1], under 10 µM; under setting [2], under 10 µM.

For `Cc1cc(/C=C/C(=O)N2CCN(C(=O)c3ccoc3)CC2)c(Cl)cc1Sc1ccc(F)cc1` [Example 17, (E)-3-(2-chloro-4-(4-fluorophenylthio)-5-methylphenyl)-1-(4-(furan-3-carbonyl)piperazin-1-yl)prop-2-en-1-one], the IC50 runs as follows: under setting [1], 10 to 50 µM; under setting [2], 10 to 50 µM.
